Data taken from US9883997B2, “Cosmetic compositions with tricyclodecane amides” (Conopco, Inc., priority 2013, dated 2018).
Like-named read-outs stand apart in the source and are kept apart here.

What was measured:
[1] = Precursor cosmetic compositions evaluated for crystals content, i.e. solubility of solid agent in the liquid agent (Example 29); format: physicochemical
Description: The following precursor cosmetic compositions were prepared and evaluated for crystals content, i.e. solubility of solid agent in the liquid agent.
The composition is heated to a temperature above the melting point of the highest melting compound, then allowed to cool to room temperature. […] In the case of end use cosmetic compositions visualization of the crystals of solid agent was done by comparing a sample with and without tricyclodecane amide and observing the formation of crystals, if any, under the optical microscope fitted with cross-polarizers at a magnification of 10× or higher.

[2] = cited from earlier work
[3] = 2-HEU (16.6%) in OMC (50%), [S]/[L] 0.3, amide (33.3%), 24 hours
[4] = 12HSA (16.6%) in OMC (50%), [S]/[L] 0.3, amide or comparator (33%), 24 hours
[5] = Cholesterol (16.6%) in OMC (50%), [S]/[L] 0.3, amide or comparator (33.3%), 24 hours
[6] = Climbazole (28.5%) in OMC (42.8%), [S]/[L] 0.7, amide (28.5%), 24 hours
[7] = Climbazole (28.5%) in Pelemol GTIS (42.8%), [S]/[L] 0.7, amide (28.5%), 24 hours
[8] = Niacinamide (9.1%) in PPG425 (54.5%), [S]/[L] 0.2, amide (36.4%), observation at 12 hours
[9] = Niacinamide (10%) in Glucam P-20 (55%), [S]/[L] 0.2, amide (35%), 24 hours
[10] = Cholesterol (18%) in retinol proprionate (50%), [S]/[L] 0.4, amide or comparator (32%), observation at 12 hours
[11] = retinyl palmitate (28.5%) in OMC (42.8%), [S]/[L] 0.7, amide or comparator (28.5%), 24 hours
[12] = liquid cosmetic agents, Table 2

NC(=O)NCCO [2-hydroxyethyl urea]
Appearance after cooling - observation at 24 hours, except as noted ([1]; 2-HEU (24.9%) in OMC (75.1%), [S]/[L] 0.3, no tricyclodecaneamide, 24 hours): crystal + liquid
Log Po/w ([2]; solid cosmetic agents, Table 1): −0.86

CC(C)(C)C(=O)C(Oc1ccc(Cl)cc1)n1ccnc1 (stereo not shown) [Climbazole]
Appearance after cooling - observation at 24 hours, except as noted ([1]; Climbazole (10%) in Pelemol GTIS (90%), [S]/[L] 0.1, no tricyclodecaneamide, 24 hours): crystal + liquid
Appearance after cooling - observation at 24 hours, except as noted ([1]; Climbazole (30%) in OMC (70%), [S]/[L] 0.4, no tricyclodecaneamide, 24 hours): crystal + liquid
Appearance after cooling - observation at 24 hours, except as noted ([1]; Climbazole (40%) in PPG425 (60%), [S]/[L] 0.7, no tricyclodecaneamide, 24 hours): crystals + liquid
Log Po/w ([2]; solid cosmetic agents, Table 1): 3.49

O=C(N1CCCC2CCCCC21)C12CC3CC(CC(C3)C1)C2 (stereo not shown) [Compound C10, Methanone, (decahydroquinolinyl)tricyclo[3.3.1.1^3,7]dec-1-yl-]
Appearance after cooling - observation at 24 hours, except as noted [1, 3]: clear liquid
Appearance after cooling - observation at 24 hours, except as noted [1, 4]: translucent gel
Appearance after cooling - observation at 24 hours, except as noted [1, 5]: Clear liquid
Appearance after cooling - observation at 24 hours, except as noted [1, 6]: clear liquid
Appearance after cooling - observation at 24 hours, except as noted [1, 7]: clear liquid
Appearance after cooling - observation at 24 hours, except as noted [1, 8]: clear liquid
Appearance after cooling - observation at 24 hours, except as noted [1, 9]: clear liquid

CC1CCCN(C(=O)C23CC4CC(CC(C4)C2)C3)C1 (stereo not shown) [Compound C14, Methanone, (3-methyl-1-piperidinyl)tricyclo[3.3.1.1^3,7]dec-1-yl-]
Appearance after cooling - observation at 24 hours, except as noted [1, 3]: clear liquid
Appearance after cooling - observation at 24 hours, except as noted ([1]; 2-HEU (42%) in OMC (33%), [S]/[L] 1.3, amide (25%), 24 hours): crystal + liquid
Appearance after cooling - observation at 24 hours, except as noted [1, 4]: translucent gel
Appearance after cooling - observation at 24 hours, except as noted ([1]; 12HSA (16.6%) in Pelemol TISC (50%), [S]/[L] 0.3, amide (33%), 24 hours): translucent gel
Appearance after cooling - observation at 24 hours, except as noted ([1]; Avobenzone (28.5%) in Propylene glycol (42.8%), [S]/[L] 0.7, amide (28.5%), 24 hours): Crystal + liquid
Appearance after cooling - observation at 24 hours, except as noted ([1]; Cholesterol (10%) in conjugated linoleic acid (45%), [S]/[L] 0.2, amide (45%), 24 hours): clear liquid
Appearance after cooling - observation at 24 hours, except as noted [1, 5]: Clear liquid
Appearance after cooling - observation at 24 hours, except as noted [1, 10]: clear liquid
Appearance after cooling - observation at 24 hours, except as noted ([1]; Cholesterol (35%) in OMC (32%), [S]/[L] 1.1, amide (33%), 24 hours): crystal + liquid
Appearance after cooling - observation at 24 hours, except as noted ([1]; Cholesterol (40%) in conjugated linoleic acid (30%), [S]/[L] 1.3, amide (30%), 24 hours): crystals + liquid
Appearance after cooling - observation at 24 hours, except as noted ([1]; Cholesterol (45%) in retinol proprionate (35%), [S]/[L] 1.3, amide (20%), observation at 12 hours): opaque solid
Appearance after cooling - observation at 24 hours, except as noted [1, 6]: clear liquid
Appearance after cooling - observation at 24 hours, except as noted ([1]; Climbazole (28.5%) in PPG425 (42.8%), [S]/[L] 0.7, amide (28.5%), 24 hours): clear liquid
Appearance after cooling - observation at 24 hours, except as noted [1, 7]: clear liquid
Appearance after cooling - observation at 24 hours, except as noted ([1]; Climbazole (45%) in PPG425 (35%), [S]/[L] 1.3, amide (20%), 24 hours): crystals + liquid
Appearance after cooling - observation at 24 hours, except as noted ([1]; Climbazole (50%) in Pelemol GTIS (25%), [S]/[L] 2, amide (25%), 24 hours): crystal + liquid
Appearance after cooling - observation at 24 hours, except as noted ([1]; Climbazole (55%) in OMC (22.5%), [S]/[L] 2.4, amide (22.5%), 24 hours): crystal + liquid
Appearance after cooling - observation at 24 hours, except as noted ([1]; Methyl Paraben (40%) in PPG-425 (40%), [S]/[L] 1, amide (20%), 24 hours): clear liquid
Appearance after cooling - observation at 24 hours, except as noted ([1]; Methyl Paraben (60%) in PPG-425 (25%), [S]/[L] 2, amide (15%), 24 hours): crystal + liquid
Appearance after cooling - observation at 24 hours, except as noted [1, 8]: clear liquid
Appearance after cooling - observation at 24 hours, except as noted [1, 9]: clear liquid
Appearance after cooling - observation at 24 hours, except as noted ([1]; Niacinamide (35%) in Glucam P-20 (25%), [S]/[L] 1.4, amide (40%), 24 hours): crystal + liquid
Appearance after cooling - observation at 24 hours, except as noted ([1]; Niacinamide (35%) in PPG425 (32.5%), [S]/[L] 1.1, amide (32.5%), observation at 12 hours): opaque solid
Appearance after cooling - observation at 24 hours, except as noted ([1]; Salicylic acid (15%) in conjugated linoleic acid (35%), [S]/[L] .4, amide (50%), 24 hours): clear liquid
Appearance after cooling - observation at 24 hours, except as noted ([1]; Salicylic acid (18%) in OMC (50%), [S]/[L] 0.4, amide (32%), 24 hours): clear liquid
Appearance after cooling - observation at 24 hours, except as noted ([1]; Salicylic acid (42%) in conjugated linoleic acid (33%), [S]/[L] 1.3, amide (25%), 24 hours): opaque solid
Appearance after cooling - observation at 24 hours, except as noted ([1]; Salicylic acid (60%) in OMC (25%), [S]/[L] 2.4, amide (15%), 24 hours): crystal + liquid
Appearance after cooling - observation at 24 hours, except as noted [1, 11]: clear liquid

CC(C)(C)CC(C)(C)NC(=O)C12CC3CC(CC(C3)C1)C2 [Compound C21, Methanone, (1,1-dimethyl-3,3-dimethylbutylaminyl) tricyclo[3.3.1.1^3,7]dec-1-yl-]
Appearance after cooling - observation at 24 hours, except as noted [1, 3]: Translucent gel
Appearance after cooling - observation at 24 hours, except as noted ([1]; Avobenzone (28%) in OMC (40%), [S]/[L] 0.7, amide (32%), 24 hours): Clear liquid
Appearance after cooling - observation at 24 hours, except as noted ([1]; Avobenzone (45%) in OMC (27.5%), [S]/[L] 1.6, amide (27.5%), 24 hours): crystals + liquid
Appearance after cooling - observation at 24 hours, except as noted [1, 5]: Translucent gel
Appearance after cooling - observation at 24 hours, except as noted [1, 6]: clear liquid
Appearance after cooling - observation at 24 hours, except as noted [1, 7]: clear liquid
Appearance after cooling - observation at 24 hours, except as noted [1, 9]: clear liquid

O=C(O)CO [Glycolic acid]
Log Po/w ([2]; solid cosmetic agents, Table 1): −1.2

CCCCCCCCCCCCCC(=O)OC(C)C [Isopropyl myristate]
Log Po/w [2, 12]: 7.25

NC(=O)c1cccnc1 [Niacinamide]
Appearance after cooling - observation at 24 hours, except as noted ([1]; Niacinamide (10%) in Glucam P-20 (90%), [S]/[L] 0.1, no tricyclodecaneamide, 24 hours): crystal + liquid
Appearance after cooling - observation at 24 hours, except as noted ([1]; Niacinamide (14.5%) in PPG425 (85.5%), [S]/[L] 0.2, no tricyclodecaneamide, observation at 12 hours): opaque solid
Log Po/w ([2]; solid cosmetic agents, Table 1): −0.37

CCCCC(CC)COC(=O)C=Cc1ccc(OC)cc1 (stereo not shown) [Octylmethoxycinnamate]
Log Po/w [2, 12]: 5.92

CC(O)CO (stereo not shown) [Propylene glycol]
Log P ([2]; liquid agent named in Table 3): P~−1.3)

Oc1cc(Cl)ccc1Oc1ccc(Cl)cc1Cl [Triclosan]
Log Po/w ([2]; solid cosmetic agents, Table 1): 5.34

CC(C)CCC[C@@H](C)[C@H]1CC[C@H]2[C@@H]3CC=C4C[C@@H](O)CC[C@]4(C)[C@H]3CC[C@]12C [cholesterol]
Appearance after cooling - observation at 24 hours, except as noted ([1]; Cholesterol (16%) in OMC (84%), [S]/[L] 0.2, no tricyclodecaneamide, 24 hours): crystal + liquid
Appearance after cooling - observation at 24 hours, except as noted ([1]; Cholesterol (20%) in conjugated linoleic acid (80%), [S]/[L] 0.2, no tricyclodecaneamide, 24 hours): crystals + liquid
Appearance after cooling - observation at 24 hours, except as noted ([1]; Cholesterol (20%) in retinol proprionate (80%), [S]/[L] 0.3, no tricyclodecaneamide, observation at 12 hours): opaque solid
Log Po/w ([2]; solid cosmetic agents, Table 1): 9.62

CC(C)CCCCCCCCCCCCCCC(=O)OC(C)C [isopropyl isostearate]
Log Po/w [2, 12]: 9.14

CCCCCCCCCCCCCCCCCC(N)=O [octadecanamide, reference compound]
Appearance after cooling - observation at 24 hours, except as noted [1, 4]: opaque solid
Appearance after cooling - observation at 24 hours, except as noted [1, 5]: crystal + liquid
Appearance after cooling - observation at 24 hours, except as noted [1, 10]: opaque solid
Appearance after cooling - observation at 24 hours, except as noted ([1]; Climbazole (16.6%) in OMC (50%), [S]/[L] 0.7, straight chain comparator (33.3%), 24 hours): crystal + liquid
Appearance after cooling - observation at 24 hours, except as noted [1, 11]: crystal + liquid

CCCCC(CC)COC(=O)C(C#N)=C(c1ccccc1)c1ccccc1 (stereo not shown) [octocrylene]
Log Po/w [2, 12]: 6.89

NC(=O)c1ccccc1C(N)=O [phthalamide, reference compound]
Appearance after cooling - observation at 24 hours, except as noted [1, 4]: opaque solid

CCCCCCCCCCCCCC(=O)NC1CCCC(C)C1 (stereo not shown) [tetradecanoic acid (3 methyl-cyclohexyl)-amide, reference compound]
Appearance after cooling - observation at 24 hours, except as noted ([1]; Avobenzone (45%) in OMC (27.5%), [S]/[L] 2, straight chain comparator (27.5%), 24 hours): crystals + liquid

Conjugated linoleic acid
Log Po/w [2, 12]: >6
